Experiments:
[1] = tested on: (GR)10; test: Cleavage of (GR)10 by enzymes in solution (PBS with CaCl2 and MgCl2), LC/MS of GR repeats; assay type: biochemical; conditions: for (GR)1 concentration / (GR)2 concentration / (GR)4 concentration / (GR)6 concentration / (GR)8 concentration / (GR)10 concentration: (GR)10 50 μM; for (GR)1 / (GR)2 / (GR)3 / (GR)4 / (GR)5 / (GR)6 / (GR)8 / (GR)10: PBS, normalized
Method: • (GR)10 dipeptide (also (GR)8, (GR)6, (GR)4, (GR)2) were synthetized by solid-phase synthesis by CanPeptide; All peptides are uncapped and supplied lyophilized with TFA as counter ions. Purity was always above 95%. • Buffer: PBS buffer containing CaCl2 and MgCl2. • Stock solution of enzyme (e.g., 10 mg/mL) (prepared per manufacturer instructions) in PBS. Activators added as necessary. • Working solution of protein of the desired concentration (e.g., 100 μg/mL) prepared immediately before use by diluting the stock solution (e.g., 5 μL of 10 mg/mL stock solution) in PBS buffer (e.g., in 495 μL of PBS). Exemplary Procedure Using 50 μM Concentrations of (GR)10
25 μL of a 100 μM solution of (GR)10 was added to each well of a 96-well plate. 25 μL of a solution of enzyme (two times the desired final enzyme concentration) was added, and the plates were incubated at room temperature. At the specified time points (5 minutes, 10 minutes, 30 minutes, 60 minutes, and 180 minutes) 2.5 μL of a 10% TFA solution were added to stop the reaction. For the time 0 min well, the TFA was added to the well before addition of the enzyme. After last time point, all samples were further diluted with 150 μL of dilution solution. The quenched reaction mixtures were analyzed by LC/MS to determine the concentration of GR repeats of different lengths.
The chromatography and mass spectrometry conditions utilized are shown in Table 2 and Table 3, respectively.

[2] = tested on: (GR)10; test: (GR)10 digestion with immobilized proteases in human cerebrospinal fluid (CSF); assay type: biochemical; conditions: immobilized enzyme
Method: Protease solutions were prepared at 2 mg/mL in sterile PBS with calcium, magnesium and 200 μL ([…]) were applied to 100 μL of pre-washed NHS-activated agarose resin in 0.8 mL centrifuge columns. Reactions were left 1.5 hour at room temperature with end-to-end mixing, after which resins were washed with 12 resin volumes of PBS. Unreacted sites were blocked with 500 μL of 1M ethanolamine for 15 minutes at room temperature and resins were further washed with 24 resin volumes. Resins were stored at 4 degrees in 500 μL of PBS containing 0.05% sodium azide as preservative.
200 μM of (GR)10 were diluted in human cerebrospinal fluid (CSF) and 400 μL were applied to each immobilized proteases. The reaction was incubated 5 minutes at room temperature with end-to-end mixing. Columns were spun down 1 minute at 1,000 Xg to recover digested GR dipeptides. Columns were washed with 12 resin volumes of PBS. The procedure was repeated with 60 minutes digestion time. 100 μL of each samples were transferred to a clean tube, flash-frozen and subsequently used for LC/MS quantification of GR repeats of different lengths. The remaining 300 μL of each samples were flash-frozen and used to assess neuron toxicity.
(GR)10 was digested with exemplary immobilized enzymes as described above in the subsection titled “(GR)10 digestion with immobilized proteases in CSF” of Example 3. Clostripain experiments were conducted with and without DTT activation (no DTT during digestion). The results obtained after 5 and 60 minutes of reaction time are presented in Table 25 and shown in FIG. 5 (commercial and in-house immobilized trypsin), FIG. 6 (immobilized elastase, FIG. 7A (immobilized clostripain without DTT) and FIG. 7 (immobilized clostripain with 2.5 mM DTT).

Substance: Elastase: protease that cleaves at the carboxyl side of small hydrophobic amino acids; in Table 22 also immobilized on agarose resin
- (GR)1 concentration ([1]; enzyme 2.5 μg/mL, 0 min): BLQ
- (GR)2 concentration ([1]; enzyme 2.5 μg/mL, 0 min): BLQ
- (GR)4 concentration ([1]; enzyme 2.5 μg/mL, 0 min): BLQ
- (GR)6 concentration ([1]; enzyme 2.5 μg/mL, 0 min): BLQ
- (GR)8 concentration ([1]; enzyme 2.5 μg/mL, 0 min): BLQ
- (GR)10 concentration ([1]; enzyme 2.5 μg/mL, 0 min): 53.8 µM
- (GR)1 concentration ([1]; enzyme 2.5 μg/mL, 5 min): 0.2 µM
- (GR)2 concentration ([1]; enzyme 2.5 μg/mL, 5 min): 0.2 µM
- (GR)4 concentration ([1]; enzyme 2.5 μg/mL, 5 min): BLQ
- (GR)6 concentration ([1]; enzyme 2.5 μg/mL, 5 min): BLQ
- (GR)8 concentration ([1]; enzyme 2.5 μg/mL, 5 min): 0.3 µM
- (GR)10 concentration ([1]; enzyme 2.5 μg/mL, 5 min): 52.6 µM
- (GR)1 concentration ([1]; enzyme 2.5 μg/mL, 10 min): 0.3 µM
- (GR)2 concentration ([1]; enzyme 2.5 μg/mL, 10 min): 0.2 µM
- (GR)4 concentration ([1]; enzyme 2.5 μg/mL, 10 min): 0.2 µM
- (GR)6 concentration ([1]; enzyme 2.5 μg/mL, 10 min): BLQ
- (GR)8 concentration ([1]; enzyme 2.5 μg/mL, 10 min): 0.6 µM
- (GR)10 concentration ([1]; enzyme 2.5 μg/mL, 10 min): 52.5 µM
- (GR)1 concentration ([1]; enzyme 2.5 μg/mL, 30 min): 1.3 µM
- (GR)2 concentration ([1]; enzyme 2.5 μg/mL, 30 min): 0.8 µM
- (GR)4 concentration ([1]; enzyme 2.5 μg/mL, 30 min): 0.7 µM
- (GR)6 concentration ([1]; enzyme 2.5 μg/mL, 30 min): 0.7 µM
- (GR)8 concentration ([1]; enzyme 2.5 μg/mL, 30 min): 0.6 µM
- (GR)10 concentration ([1]; enzyme 2.5 μg/mL, 30 min): 43.6 µM
- (GR)1 concentration ([1]; enzyme 2.5 μg/mL, 60 min): 2.3 µM
- (GR)2 concentration ([1]; enzyme 2.5 μg/mL, 60 min): 1.4 µM
- (GR)4 concentration ([1]; enzyme 2.5 μg/mL, 60 min): 1.4 µM
- (GR)6 concentration ([1]; enzyme 2.5 μg/mL, 60 min): 1.0 µM
- (GR)8 concentration ([1]; enzyme 2.5 μg/mL, 60 min): 1.6 µM
- (GR)10 concentration ([1]; enzyme 2.5 μg/mL, 60 min): 35.3 µM
- (GR)1 concentration ([1]; enzyme 2.5 μg/mL, 120 min): 4.3 µM
- (GR)2 concentration ([1]; enzyme 2.5 μg/mL, 120 min): 2.1 µM
- (GR)4 concentration ([1]; enzyme 2.5 μg/mL, 120 min): 2.3 µM
- (GR)6 concentration ([1]; enzyme 2.5 μg/mL, 120 min): 1.5 µM
- (GR)8 concentration ([1]; enzyme 2.5 μg/mL, 120 min): 2.5 µM
- (GR)10 concentration ([1]; enzyme 2.5 μg/mL, 120 min): 24.9 µM
- (GR)1 concentration ([1]; enzyme 10 μg/mL, 0 min): BLQ
- (GR)2 concentration ([1]; enzyme 10 μg/mL, 0 min): BLQ
- (GR)4 concentration ([1]; enzyme 10 μg/mL, 0 min): BLQ
- (GR)6 concentration ([1]; enzyme 10 μg/mL, 0 min): BLQ
- (GR)8 concentration ([1]; enzyme 10 μg/mL, 0 min): BLQ
- (GR)10 concentration ([1]; enzyme 10 μg/mL, 0 min): 41.6 µM
- (GR)1 concentration ([1]; enzyme 10 μg/mL, 5 min): 0.8 µM
- (GR)2 concentration ([1]; enzyme 10 μg/mL, 5 min): 0.5 µM
- (GR)4 concentration ([1]; enzyme 10 μg/mL, 5 min): 0.5 µM
- (GR)6 concentration ([1]; enzyme 10 μg/mL, 5 min): 0.4 µM
- (GR)8 concentration ([1]; enzyme 10 μg/mL, 5 min): 0.9 µM
- (GR)10 concentration ([1]; enzyme 10 μg/mL, 5 min): 50.5 µM
- (GR)1 concentration ([1]; enzyme 10 μg/mL, 10 min): 1.4 µM
- (GR)2 concentration ([1]; enzyme 10 μg/mL, 10 min): 0.8 µM
- (GR)4 concentration ([1]; enzyme 10 μg/mL, 10 min): 0.7 µM
- (GR)6 concentration ([1]; enzyme 10 μg/mL, 10 min): 0.8 µM
- (GR)8 concentration ([1]; enzyme 10 μg/mL, 10 min): 0.9 µM
- (GR)10 concentration ([1]; enzyme 10 μg/mL, 10 min): 37.8 µM
- (GR)1 concentration ([1]; enzyme 10 μg/mL, 30 min): 5.1 µM
- (GR)2 concentration ([1]; enzyme 10 μg/mL, 30 min): 2.5 µM
- (GR)4 concentration ([1]; enzyme 10 μg/mL, 30 min): 2.2 µM
- (GR)6 concentration ([1]; enzyme 10 μg/mL, 30 min): 1.6 µM
- (GR)8 concentration ([1]; enzyme 10 μg/mL, 30 min): 2.8 µM
- (GR)10 concentration ([1]; enzyme 10 μg/mL, 30 min): 21.1 µM
- (GR)1 concentration ([1]; enzyme 10 μg/mL, 60 min): 8.3 µM
- (GR)2 concentration ([1]; enzyme 10 μg/mL, 60 min): 3.7 µM
- (GR)4 concentration ([1]; enzyme 10 μg/mL, 60 min): 2.8 µM
- (GR)6 concentration ([1]; enzyme 10 μg/mL, 60 min): 2.2 µM
- (GR)8 concentration ([1]; enzyme 10 μg/mL, 60 min): 3.3 µM
- (GR)10 concentration ([1]; enzyme 10 μg/mL, 60 min): 12.2 µM
- (GR)1 concentration ([1]; enzyme 10 μg/mL, 120 min): 15.1 µM
- (GR)2 concentration ([1]; enzyme 10 μg/mL, 120 min): 6.3 µM
- (GR)4 concentration ([1]; enzyme 10 μg/mL, 120 min): 3.2 µM
- (GR)6 concentration ([1]; enzyme 10 μg/mL, 120 min): 2.0 µM
- (GR)8 concentration ([1]; enzyme 10 μg/mL, 120 min): 1.3 µM
- (GR)10 concentration ([1]; enzyme 10 μg/mL, 120 min): 2.4 µM
- (GR)1 ([1]; in solution - 5 min reaction): 1.4 µM
- (GR)2 ([1]; in solution - 5 min reaction): 2.9 µM
- (GR)3 ([1]; in solution - 5 min reaction): 2.1 µM
- (GR)4 ([1]; in solution - 5 min reaction): 3.1 µM
- (GR)5 ([1]; in solution - 5 min reaction): 2.3 µM
- (GR)6 ([1]; in solution - 5 min reaction): 4.4 µM
- (GR)8 ([1]; in solution - 5 min reaction): 6.8 µM
- (GR)10 ([1]; in solution - 5 min reaction): 213.3 µM
- (GR)1 ([1]; in solution - 60 min reaction): 5.4 µM
- (GR)2 ([1]; in solution - 60 min reaction): 12.8 µM
- (GR)3 ([1]; in solution - 60 min reaction): 8.5 µM
- (GR)4 ([1]; in solution - 60 min reaction): 8.8 µM
- (GR)5 ([1]; in solution - 60 min reaction): 6.0 µM
- (GR)6 ([1]; in solution - 60 min reaction): 9 µM
- (GR)8 ([1]; in solution - 60 min reaction): 12.8 µM
- (GR)10 ([1]; in solution - 60 min reaction): 21.6 µM
- (GR)1 (normalized uM) ([2]; 5 min reaction): 57.4 µM
- (GR)2 (normalized uM) ([2]; 5 min reaction): 29.4 µM
- (GR)3 (normalized uM) ([2]; 5 min reaction): 20.7 µM
- (GR)4 (normalized uM) ([2]; 5 min reaction): 22 µM
- (GR)5 (normalized uM) ([2]; 5 min reaction): 10.5 µM
- (GR)6 (normalized uM) ([2]; 5 min reaction): 0.0 µM
- (GR)8 (normalized uM) ([2]; 5 min reaction): 0.0 µM
- (GR)10 (normalized uM) ([2]; 5 min reaction): 0.0 µM
- (GR)1 (normalized uM) ([2]; 60 min reaction): 200.3 µM
- (GR)2 (normalized uM) ([2]; 60 min reaction): 6 µM
- (GR)3 (normalized uM) ([2]; 60 min reaction): 0.0 µM
- (GR)4 (normalized uM) ([2]; 60 min reaction): 0.0 µM
- (GR)5 (normalized uM) ([2]; 60 min reaction): 0.0 µM
- (GR)6 (normalized uM) ([2]; 60 min reaction): 0.0 µM
- (GR)8 (normalized uM) ([2]; 60 min reaction): 0.0 µM
- (GR)10 (normalized uM) ([2]; 60 min reaction): 0.0 µM

From patent publication US11419921B2, “Methods of treating neurological disorders” (EnClear Therapies, Inc., priority 2018, dated 2022)
